Results reported in US9023844B2, “Heterocyclylpyri (mi) dinylpyrazole as fungicidals” (Bayer Intellectual Property GmbH, priority 2011, dated 2015).
Like-named read-outs stand apart in the source and are kept apart here.

Columns and labels:
[1] = Determination of log P values by HPLC on a reverse phase column (C18), EEC-Directive 79/831 Annex V.A8 (Methods A, B, C); format: physicochemical; conditions: for chromatographic logP: reverse phase C18 HPLC column
In short: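 LogP was determined by C18 reverse-phase HPLC/UPLC with acetonitrile/water eluents containing formic acid. Method A used a 10–95% acetonitrile gradient over 4.25 min at 55 °C and 2.0 mL/min. Method B used 5–95% over 1.70 min at 55 °C and 2.0 mL/min, and Method C used 10–95% over 3.25 min at 40 °C and 0.8 mL/min, with MS detection.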

[2] = test system: Fusarium nivale (var. majus); assay: Example K: Fusarium nivale (var. majus) test (wheat) / preventive; format: in vivo; conditions: 500 ppm of active ingredient, preventive spray, evaluated 5 days after inoculation
Protocol: After the spray coating has been dried, the plants are slightly injured by using a sandblast and afterwards they are sprayed with a conidia suspension of Fusarium nivale (var. majus).
The test is evaluated 5 days after the inoculation.

[3] = test system: Fusarium graminearum; format: in vivo; conditions: in vivo
[4] = test system: Pyrenophora teres; assay: Example D: Pyrenophora test (barley) / preventive; format: in vivo; conditions: in vivo
[5] = test system: Puccinia recondita; assay: Example E: Puccinia test (wheat) / preventive; format: in vivo; conditions: in vivo
[6] = test system: Uromyces appendiculatus; assay: Example B: Uromyces test (beans) / preventive; format: in vivo; conditions: in vivo
[7] = test system: Sphaerotheca fuliginea; assay: Example A: Sphaerotheca test (cucumber) / preventive; format: in vivo; conditions: in vivo
[8] = test system: Septoria tritici; assay: Example J: Septoria tritici test (wheat) / preventive; format: in vivo; conditions: in vivo
[9] = test system: Pyricularia oryzae; format: in vivo; conditions: in vivo
[10] = test system: Leptosphaeria nodorum; assay: Example C: Leptosphaeria test (wheat) / preventive; format: in vivo; conditions: in vivo
[11] = test system: Fusarium graminearum; assay: microbe, parasite or virus in culture; format: cell-based; conditions: for Growth inhibition of Fusarium graminearum in %: at 50 μM
[12] = test system: DON/Acetyl-DON production by Fusarium graminearum; assay: microbe, parasite or virus in culture; format: cell-based; conditions: at 50 μM
[13] = Method B (HPLC, reverse phase C18)
[14] = Method C (HPLC, reverse phase C18)

CC(C)(C)CC(=O)Nc1cc(-c2c(-c3ccc(F)cc3)nn3c2OCCC3)ccn1 [Example 34]
LogP [1, 13]: 2.04 | efficacy [2]: 75% | efficacy [3]: 86% | efficacy [4]: 100% | efficacy [5]: 100% | efficacy [6]: 94% | efficacy [7]: 95% | efficacy [8]: 88% | efficacy [9]: 94% | efficacy [10]: 90%

CSCC(=O)Nc1cc(-c2c(-c3ccc(F)cc3)nn3c2OCCC3)ccn1 [Example 30]
LogP [1, 13]: 1.72 | efficacy [4]: 95% | efficacy [5]: 100% | efficacy [7]: 98% | efficacy [9]: 94% | efficacy [10]: 70%

O=C(Nc1cc(-c2c(-c3ccc(F)cc3)nn3c2OCCC3)ccn1)C(=O)N1CCCCC1 [Example 70]
LogP [1, 13]: 2.23 | Growth inhibition of Fusarium graminearum in % [11]: 76% | Inhibition of DON/AcDON in % [12]: 90%

CC(C)CC(=O)Nc1cc(-c2c(-c3ccc(F)cc3F)nn3c2OCCC3)ccn1 [Example 40]
LogP [1, 13]: 1.88 | Growth inhibition of Fusarium graminearum in % [11]: 85% | efficacy [4]: 95% | efficacy [5]: 100% | efficacy [6]: 94% | efficacy [7]: 98% | Inhibition of DON/AcDON in % [12]: 99% | efficacy [9]: 94%

O=C(Nc1cc(-c2c(-c3ccc(F)cc3F)nn3c2OCCC3)ccn1)C1CC1 [Example 36]
LogP [1, 13]: 1.42 | efficacy [2]: 88% | efficacy [3]: 100% | efficacy [4]: 95% | efficacy [5]: 100% | efficacy [6]: 92% | efficacy [7]: 100% | efficacy [8]: 88% | efficacy [9]: 94% | efficacy [10]: 90%

O=C(Nc1cc(-c2c(-c3ccc(F)cc3)nn3cccnc23)ccn1)C1CC1 [Example 88]
LogP [1, 14]: 1.75 | Growth inhibition of Fusarium graminearum in % [11]: 55% | efficacy [4]: 95% | efficacy [7]: 93% | Inhibition of DON/AcDON in % [12]: 70% | efficacy [9]: 90%

O=C(Nc1cc(-c2c(-c3ccccc3)nn3c2OCCC3)ccn1)C1CCOCC1 [Example 14]
LogP [1, 13]: 1.22 | efficacy [2]: 100% | efficacy [3]: 86% | Growth inhibition of Fusarium graminearum in % [11]: 95% | efficacy [4]: 95% | efficacy [5]: 100% | efficacy [6]: 94% | efficacy [7]: 100% | Inhibition of DON/AcDON in % [12]: 100% | efficacy [8]: 100% | efficacy [9]: 94% | efficacy [10]: 95%

CSCC(=O)Nc1cc(-c2c(-c3ccc(F)cc3F)nn3c2OCCC3)ccn1 [Example 45]
LogP [1, 13]: 1.75 | Growth inhibition of Fusarium graminearum in % [11]: 78% | efficacy [4]: 90% | efficacy [5]: 90% | efficacy [6]: 92% | efficacy [7]: 95% | Inhibition of DON/AcDON in % [12]: 100% | efficacy [9]: 94%

O=C(CC1CC1)Nc1cc(-c2c(-c3ccccc3)nn3c2OCCC3)ccn1 [Example 13]
LogP [1, 13]: 1.54 | efficacy [3]: 71% | efficacy [4]: 95% | efficacy [5]: 95% | efficacy [6]: 92% | efficacy [7]: 70% | efficacy [8]: 100% | efficacy [9]: 100%

CCC(C)C(=O)Nc1cc(-c2c(-c3ccc(F)cc3F)nn3c2OCCC3)ccn1 (stereo not drawn) [Example 39]
LogP [1, 13]: 1.85 | Growth inhibition of Fusarium graminearum in % [11]: 89% | efficacy [4]: 95% | efficacy [5]: 100% | efficacy [6]: 94% | efficacy [7]: 98% | Inhibition of DON/AcDON in % [12]: 99% | efficacy [9]: 94%

CC(C)(C)CC(=O)Nc1cc(-c2c(-c3ccccc3)nn3c2OCCC3)ccn1 [Example 20]
LogP [1, 13]: 1.88 | efficacy [4]: 95% | efficacy [5]: 100% | efficacy [6]: 97% | efficacy [7]: 100% | efficacy [9]: 94% | efficacy [10]: 95%

O=C(CC(F)(F)F)Nc1cc(-c2c(-c3ccc(F)cc3F)nn3c2OCCC3)ccn1 [Example 46]
LogP [1, 13]: 2.13 | efficacy [3]: 86% | efficacy [4]: 90% | efficacy [5]: 100% | efficacy [6]: 94% | efficacy [8]: 88% | efficacy [9]: 94%

O=C(Nc1cc(-c2c(-c3ccc(F)cc3F)nn3c2OCCC3)ccn1)C1CCOCC1 [Example 43]
LogP [1, 13]: 1.39 | efficacy [2]: 88% | efficacy [3]: 100% | Growth inhibition of Fusarium graminearum in % [11]: 89% | efficacy [4]: 95% | efficacy [5]: 100% | efficacy [6]: 92% | efficacy [7]: 100% | Inhibition of DON/AcDON in % [12]: 100% | efficacy [8]: 88% | efficacy [9]: 94% | efficacy [10]: 70%

C[C@H](O)C(=O)Nc1cc(-c2c(-c3ccccc3)nn3c2OCCC3)ccn1 [Example 12]
LogP [1, 13]: 1.2 | efficacy [2]: 93% | efficacy [3]: 86% | efficacy [4]: 100% | efficacy [5]: 100% | efficacy [6]: 94% | efficacy [7]: 83% | efficacy [8]: 100% | efficacy [9]: 100% | efficacy [10]: 80%

CCC(=O)Nc1cc(-c2c(-c3ccc(F)cc3)nn3c2NCCC3)ccn1 [Example 80]
LogP [1, 14]: 1.35 | efficacy [4]: 100% | efficacy [6]: 78% | efficacy [7]: 93% | Inhibition of DON/AcDON in % [12]: 100% | efficacy [9]: 90%

O=C(Nc1cc(-c2c(-c3ccccc3)nn3c2OCCC3)ccn1)C1(Cl)CC1 [Example 21]
LogP [1, 13]: 2.62 | efficacy [4]: 100% | efficacy [5]: 89% | efficacy [7]: 93% | efficacy [9]: 89% | efficacy [10]: 70%

CC(C)C(=O)Nc1cc(-c2c(-c3ccsc3)nn3c2OC[Si](C)(C)C3)ccn1 [Example 101]
LogP [1, 14]: 2.11 | Growth inhibition of Fusarium graminearum in % [11]: 93% | efficacy [4]: 100% | efficacy [6]: 75% | Inhibition of DON/AcDON in % [12]: 100% | efficacy [9]: 80% | efficacy [10]: 80%

CC(=O)Nc1cc(-c2c(-c3ccc(F)cc3)nn3c2OCC3)ccn1 [Example 1]
LogP [1, 13]: 1.19 | Growth inhibition of Fusarium graminearum in % [11]: 90% | efficacy [4]: 95% | efficacy [7]: 75% | Inhibition of DON/AcDON in % [12]: 98% | efficacy [9]: 70% | efficacy [10]: 88%

O=C(C1CC1)N(C(=O)C1CC1)c1cc(-c2c(-c3ccc(F)cc3)nn3cccnc23)ccn1 [Example 84]
LogP [1, 14]: 2.94 | efficacy [2]: 100% | efficacy [3]: 83% | efficacy [4]: 90% | efficacy [7]: 88% | efficacy [8]: 88% | efficacy [9]: 90%

O=C(Nc1cc(-c2c(-c3ccccc3)nn3c2OCCC3)ccn1)C1CC1 [Example 7]
LogP [1, 13]: 1.25 | efficacy [4]: 95% | efficacy [5]: 100% | efficacy [6]: 94% | efficacy [7]: 95% | efficacy [9]: 94% | efficacy [10]: 90%

O=C(CC(F)(F)F)Nc1cc(-c2c(-c3ccc(F)cc3)nn3c2OCCC3)ccn1 [Example 31]
LogP [1, 13]: 2.13 | efficacy [2]: 100% | efficacy [3]: 86% | efficacy [4]: 95% | efficacy [5]: 100% | efficacy [6]: 92% | efficacy [7]: 88% | efficacy [8]: 100% | efficacy [9]: 94%

CC(C)(C)CC(=O)Nc1cc(-c2c(-c3ccc(F)cc3F)nn3c2OCCC3)ccn1 [Example 49]
LogP [1, 13]: 2.1 | efficacy [4]: 95% | efficacy [5]: 95% | efficacy [6]: 94% | efficacy [7]: 93% | efficacy [9]: 94% | efficacy [10]: 90%

O=C(CC1CC1)Nc1cc(-c2c(-c3ccc(F)cc3)nn3c2OCCC3)ccn1 [Example 27]
LogP [1, 13]: 1.69 | efficacy [3]: 86% | efficacy [4]: 95% | efficacy [5]: 100% | efficacy [7]: 95% | efficacy [8]: 100% | efficacy [9]: 100% | efficacy [10]: 90%

CC(=O)Nc1cc(-c2c(-c3ccccc3)nn3cccnc23)ccn1 [Example 51, N-[4-(2-phenylpyrazolo[1,5-a]pyrimidin-3-yl)pyridin-2-yl]acetamide]
chromatographic logP ([1]; Method C (HPLC, reverse phase C18), read-out: LogP): 1.41 | chromatographic logP ([1]; pH 2.7, values in the synthesis examples, HPLC, reverse phase C18, read-out: log P (pH 2.7)): 1.41 | inhibition at 50 µM ([11]; Fusarium graminearum, read-out: Growth inhibition of Fusarium graminearum in %): 90% | inhibition at 50 µM ([12]; Fusarium graminearum, read-out: Inhibition of DON/AcDON in %): 100%

O=C(CC1CC1)Nc1cc(-c2c(-c3ccc(F)cc3F)nn3c2OCCC3)ccn1 [Example 42]
LogP [1, 13]: 1.72 | efficacy [4]: 100% | efficacy [5]: 95% | efficacy [6]: 94% | efficacy [9]: 94% | efficacy [10]: 70%

CC(C(=O)Nc1cc(-c2c(-c3ccccc3)nn3c2OCCC3)ccn1)c1ccc(F)cc1 (stereo not drawn) [Example 18]
LogP [1, 13]: 2.27 | efficacy [4]: 95% | efficacy [5]: 95% | efficacy [6]: 94% | efficacy [7]: 93% | efficacy [9]: 94% | efficacy [10]: 90%

CC(C)C(=O)N(C(=O)C(C)C)c1cc(-c2c(-c3ccccc3)nn3c2NCCC3)ccn1 [Example 92]
LogP [1, 14]: 3.08 | efficacy [5]: 78% | efficacy [6]: 78% | efficacy [7]: 100% | Inhibition of DON/AcDON in % [12]: 99%
